3 compounds from patent EP1675557B1, “COMPOSITION COMPRISING A SESQUITERPENE LACTONE” (Greenpharma, priority 2003, dated 2005) can be followed below.

The subject of series [1] is cellules de type Jurkat. Put plainly: Apoptosis test on Jurkat cells, apoptosis induced by sodium arsenate, quantified by flow cytometry (propidium iodide). It is filed as cell-based, humaine. Particulars: apoptosis induced by 5 µM arséniate de sodium. Here is the method:
Les tests apoptotiques ont été réalisés sur des cellules de type Jurkat. La lignée cellulaire Jurkat (Clone E6-1, ATCC TIB 152), dérivée de cellule T humaine de leucémie aiguë, a été décrite dans la littérature (Weiss A. et al, Journal of Immunology, 1984, 133, 123). Les cellules ont été incubées dans un milieu de culture en présence 1 µL d'arséniate de sodium. La concentration finale en arséniate de sodium dans le milieu de culture est de 5 µM. Afin de tester l'inhibition de l'apoptose induite par l'arséniate de sodium, les cellules ont été cultivées soit en absence (témoin) soit en présence de vulgarine 2,6 µM ou d'un de ses dérivés.
L'apoptose a été quantifiée par cytometrie en flux. Les cellules sont rendues perméables et leurs noyaux sont teintés avec de l'iodure de propidium en présence de ribonucléase. Un minimum de 3000 cellules ont été analysées afin de quantifier l'apoptose cellulaire (Hotz M.A. et al, Cytometry, 1994, 15, 237).

In series [2] the test system is PBMCs (lymphocytes et monocytes) ou du sang total. Put plainly: Cell viability test (XTT, mitochondrial dehydrogenase). Particulars: relative to control of activated cells.
Procedure: (§1) Les tests ont été réalisés sur des PBMCs (lymphocytes et monocytes) ou du sang total de donneurs sains humains. Tous les prélèvements ont été réalisés au Service d'Hépato-Gastroentérologie et d'Assistance Nutritive des Hôpitaux Universitaires de Strasbourg (Hôpital de Hautepierre), après approbation du protocole d'étude concernant les effets du célastrol par le CCPPRB n°1 d'Alsace.
(§2) Chez des volontaires sains, 20 ml de sang veineux périphérique sont prélevés le matin à jeun sur héparine. Le sang est ensuite dilué au demi dans de la solution saline équilibrée de Hank's dépourvue en Ca^2+ et en Mg^2+ (HBSS-CMF, Gibco BRL, Cergy, France) additionnée de 100 UI/ml de streptomycine (Biochrom KG, Berlin, Allemagne) et de 100 UI/ml de pénicilline (Biochrom KG). Les PBMCs (lymphocytes et monocytes) sont alors séparées par centrifugation sur Ficoll-Histopaque de densité 1,076 (Sigma, L'Isle d'Abeau-Chesnes, France) (30 min à 400 g) puis, après deux lavages dans du HBSS-CMF additionné d'antibiotiques (10 min à 250 g), resuspendues dans du milieu RPMI 1640 (Gibco BRL) additionné de 10 % (volume/volume) de sérum foetal de veau (SFV) inactivé à la chaleur (56°C, 30 min, Gibco BRL) et d'antibiotiques. Après comptage à la cellule de Malassez, les cellules sont incubées à raison de 2 x 10^5 cellules/puits de 1 ml dans des plaques de 24 puits (Corning Inc., New York, USA) à 37°C dans un incubateur humidifié (air 95 % - CO2 5 %), en présence ou en absence des molécules étudiées préparées dans du DMSO (diméthyl sulfoxyde, Sigma ; maximum : 1 % (v/v) par puit), avec ou sans activation par du lipopolysaccharide de Salmonella abortus equi (LPS, 5 µg/ml) (Sigma) et de la phytohémagglutinine (PHA, 1 µg/ml) (Sigma) ajoutés à T0. Après 24 heures d'incubation, les plaques sont centrifugées (15 min à 200 g), et les surnageants prélevés puis congelés à -80°C jusqu'au dosage.
(§3) La technique est basée sur le clivage par la déshydrogénase mitochondriale d'un sel de tétrazolium de couleur jaune en formazan de couleur orange. Les culots cellulaires (PBMCs et sang total) contenus dans les plaques de culture sont resuspendus dans du RPMI 1640 additionné d'hydroxide 2,3-bis-(2-méthoxy-4-nitro-5-sulfophényl)-5-[(phénylamino)carbonyl]-2H-tétrazolium (XTT, 1 mg/ml, Sigma), et de méthosulfate de phénazine (1,25 mM, Sigma), catalyseur de la réaction. Les plaques sont incubées 4 à 24 heures, puis lues en absorbance à 450 nm (filtre de référence : 620 nm). La viabilité cellulaire est estimée par rapport au témoin de cellules activées.
Series [3] can be described thus: in vitro. Particulars: human, pbmcs or whole blood.
Procedure: as §1, §2, §3

4-épivulgarine: in series [1] (2,6 µM), the “pourcentage d'inhibition de l'apoptose” value is on record as approximately 100%. For the same compound, the “Pourcentage de viabilité cellulaire” value in series [2] (Concentration 0,01 µM, 0.01 µM) came out at 105%; in series [2] (Concentration 0,1 µM, 0.1 µM), 103%; in series [2] (Concentration 1 µM), 99%; in series [2] (Concentration 10 µM), 103%; in series [2] (Concentration 30 µM) it was 100%.

In the case of `CC1C(=O)OC2C1CCC1(C)C(=O)CCC(C)(O)C21` (centres unmarked) [2,3-dihydrovulgarine], in series [3], the viability at 0.01 µM is 110%, the viability at 0.1 µM stood at 104%, the viability at 1 µM turned out to be 105% and the viability at 10 µM was found to be 108%. For the same compound, the viability at 30 µM in series [3] is 105%.

For the compound `CC1C(=O)OC2C1CCC1(C)C(=O)C=CC(C)(O)C21` (centres unmarked) [Vulgarine, vulgarine], in series [1] (Homo sapiens, 2,6 µM, read-out: pourcentage d'inhibition de l'apoptose), the inhibition at 2.6 µM is approximately 100%. For the same compound, in series [3], the viability at 0.01 µM stood at 112%, the viability at 0.1 µM worked out at 102%, the viability at 1 µM worked out at 119% and the viability at 10 µM was determined as 104%. Moreover, the viability at 30 µM in series [3] is 102%.
